Test results published in patent publication US20150105252A1, “SUBSTITUTED PYRAZOLES AS HERBICIDES” (E I DU PONT DE NEMOURS AND COMPANY, priority 2013, published 2015).

Assays:
barnyardgrass [1] = test: Test A postemergence; assay type: in vivo, Echinochloa crus-galli
How it was run: (§1)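 Both timings tested concurrently in loam/sand soil: preemergence by directed soil spray, postemergence on plants of 2–10 cm at the one- to two-leaf stage. Greenhouse holding period was approximately 10 days before visual injury assessment (0–100, 0 = no effect).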

velvetleaf [2] = test: Test C preemergence; assay type: in vivo, Abutilon theophrasti; details: for Velvetleaf plant response rating: preemergence
How it was run: (§2)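 Visual control ratings on a 0–100 scale (100 = complete control) made against untreated controls after 13 to 15 days in greenhouse. Compounds applied in surfactant-containing solvent mixture, either preemergence to loam/sand-sown seeds or postemergence to 1- to 4-leaf plants (2–18 cm) in peat medium.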

velvetleaf [3] = test: Test C postemergence; assay type: in vivo, Abutilon theophrasti
How it was run: as §2

soybean [4] = test: Test C preemergence; assay type: in vivo, Glycine max; details: for Soybean plant response rating: preemergence
How it was run: as §2

barnyardgrass [5] = test: Test C postemergence; assay type: in vivo, Echinochloa crus-galli
Excerpt: (§3) Seeds of plant species selected from blackgrass (Alopecurus myosuroides), ryegrass, Italian (Italian ryegrass, Lolium multiflorum), wheat (winter wheat, Triticum aestivum), galium (catchweed bedstraw, Galium aparine), corn (Zea mays), crabgrass, large (large crabgrass, Digitaria sanguinalis), foxtail, giant (giant foxtail, Setaria faberii), johnsongrass (Sorghum halepense), lambsquarters (Chenopodium album), morningglory (Ipomoea coccinea), nutsedge, yellow (yellow nutsedge, Cyperus esculentus), pigweed (redroot pigweed, Amaranthus retroflexus), ragweed (common ragweed, Ambrosia elation), soybean (Glycine max), barnyardgrass (Echinochloa crus-galli), oilseed rape (Brassica napus), waterhemp (common waterhemp, Amaranthus rudis), oat, wild (wild oat, Avena fatua), kochia (Kochia scoparia), Surinam grass (Brachiaria decumbens), foxtail, green (green foxtail, Setaria viridis), goosegrass (Eleusine indica), bromegrass, downy (downy bromegrass, Bromus tectorum), nightshade (eastern black nightshade, Solanum ptycanthum), cocklebur (common cocklebur, Xanthium strumarium), cupgrass, woolly (woolly cupgrass, Eriochloa villosa), bermudagrass (Cynodon dactylon), sunflower, (common oilseed sunflower, Helianthus annuus), Russian thistle (Salsola kali), and velvetleaf (Abutilon theophrasti) were planted into a blend of loam soil and sand and treated preemergence with test chemicals formulated in a non-phytotoxic solvent mixture which included a surfactant.
(§4) At the same time, plants selected from these crop and weed species and also chickweed (common chickweed, Stellaria media), canarygrass (littleseed canarygrass, Phalaris minor), and deadnettle (henbit deadnettle, Lamium amplexicaule), were planted in pots containing Redi-Earth® planting medium (Scotts Company, 14111 Scottslawn Road, Marysville, Ohio 43041) comprising spaghnum peat moss, vermiculite, wetting agent and starter nutrients and treated with postemergence applications of test chemicals formulated in the same manner. Plants ranged in height from 2 to 18 cm (1- to 4-leaf stage) for postemergence treatments. Treated plants and controls were maintained in a greenhouse for 13 to 15 days, after which time all species were compared to controls and visually evaluated. Plant response ratings, summarized in Table C, are based on a scale of 0 to 100 where 0 is no effect and 100 is complete control. A dash (-) response means no test result.

nutsedge, yellow = test: Test C preemergence; assay type: in vivo, Cyperus esculentus; details: for Nutsedge, Yellow plant response rating: preemergence
How it was run: as §2

pigweed = test: Test A postemergence; assay type: in vivo, Amaranthus retroflexus
How it was run: as §1

crabgrass, large [6] = test: Test A preemergence; assay type: in vivo, Digitaria sanguinalis; details: preemergence
How it was run: as §1

wheat = test: Test C postemergence; assay type: in vivo, Triticum aestivum
How it was run: as §2

velvetleaf [7] = test: Test A preemergence; assay type: in vivo, Abutilon theophrasti; details: preemergence
How it was run: as §1

oilseed rape = test: Test C postemergence; assay type: in vivo, Brassica napus
Excerpt: as §3, §4

soybean [8] = test: Test C postemergence; assay type: in vivo, Glycine max
Excerpt: as §3, §4

corn = test: Test C postemergence; assay type: in vivo, Zea mays; details: postemergence
Excerpt: as §3, §4

barnyardgrass [9] = test: Test A preemergence; assay type: in vivo, Echinochloa crus-galli; details: preemergence
How it was run: as §1

crabgrass, large [10] = test: Test A postemergence; assay type: in vivo, Digitaria sanguinalis
How it was run: as §1

[11] = Postemergence, 500 g ai/ha, visual rating after approx. 10 days, 0 to 100 scale (0 no effect, 100 complete control)
[12] = postemergence, 125 g ai/ha, about 10 days, visual rating on 0 to 100 scale (0 no effect, 100 complete control)
[13] = 31 g ai/ha, visual rating, scale 0 to 100 (0 no effect, 100 complete control), 13 to 15 days
[14] = 62 g ai/ha, scale 0 to 100 (0 no effect, 100 complete control), 13 to 15 days
[15] = 125 g ai/ha, scale 0 to 100, 0 is no effect, 100 is complete control
[16] = Postemergence, 31 g ai/ha, visually evaluated after 13 to 15 days
[17] = postemergence, 62 g ai/ha, scale 0 to 100
[18] = postemergence, 250 g ai/ha, scale 0 to 100 (0 no effect, 100 complete control)
[19] = postemergence, 125 g ai/ha, scale 0 to 100, 0 no effect, 100 complete control
[20] = 125 g ai/ha, visual injury, 0 to 100 scale, approx. 10 days
[21] = 500 g ai/ha, visual injury after approx. 10 days, 0 to 100 scale (0 no effect, 100 complete control)

Compound: CCc1cc(-c2ccc(C(F)(F)F)cc2)nn1Cc1ccnc(C(F)(F)F)c1 [Compound 110]
- Barnyardgrass plant response rating (barnyardgrass [1]; [11]): 90
- Barnyardgrass plant response rating (barnyardgrass [1]; [12]): 80
- Plant response rating (scale of 0 to 100), Velvetleaf (velvetleaf [2]; Preemergence, 250 g ai/ha): 75
- Velvetleaf plant response rating (velvetleaf [2]; [13]): 50
- Velvetleaf plant response rating (velvetleaf [2]; [14]): 50
- Velvetleaf plant response rating (velvetleaf [2]; [15]): 70
- Plant response rating (scale of 0 to 100 where 0 is no effect and 100 is complete control), Velvetleaf (velvetleaf [3]; [16]): 30
- Velvetleaf plant response rating (velvetleaf [3]; [17]): 50
- Plant response rating, Velvetleaf (velvetleaf [3]; [18]): 75
- Plant response rating, Velvetleaf (velvetleaf [3]; [19]): 70
- Plant response rating (scale of 0 to 100), Soybean (soybean [4]; Preemergence, 250 g ai/ha): 20
- Soybean plant response rating (soybean [4]; [13]): 10
- Soybean plant response rating (soybean [4]; [15]): 15
- Plant response rating (scale of 0 to 100 where 0 is no effect and 100 is complete control), Barnyardgrass (barnyardgrass [5]; [16]): 20
- Barnyardgrass plant response rating (barnyardgrass [5]; [17]): 35
- Plant response rating, Barnyardgrass (barnyardgrass [5]; [18]): 65
- Plant response rating, Barnyardgrass (barnyardgrass [5]; [19]): 55
- Plant response rating (scale of 0 to 100), Nutsedge, Yellow (nutsedge, yellow; Preemergence, 250 g ai/ha): 5
- Nutsedge, Yellow plant response rating (nutsedge, yellow; [14]): 5
- Nutsedge, Yellow plant response rating (nutsedge, yellow; [15]): 5
- Pigweed plant response rating (pigweed; [11]): 100
- Pigweed plant response rating (pigweed; [12]): 100
- Crabgrass, Large plant response rating (crabgrass, large [6]; [20]): 100
- Crabgrass, Large plant response rating (crabgrass, large [6]; [21]): 100
- Plant response rating (scale of 0 to 100 where 0 is no effect and 100 is complete control), Wheat (wheat; [16]): 5
- Wheat plant response rating (wheat; [17]): 5
- Plant response rating, Wheat (wheat; [18]): 5
- Plant response rating, Wheat (wheat; [19]): 5
- Velvetleaf plant response rating (velvetleaf [7]; [20]): 90
- Velvetleaf plant response rating (velvetleaf [7]; [21]): 100
- Plant response rating (scale of 0 to 100 where 0 is no effect and 100 is complete control), Oilseed Rape (oilseed rape; [16]): 60
- Oilseed Rape plant response rating (oilseed rape; [17]): 85
- Plant response rating, Oilseed Rape (oilseed rape; [18]): 90
- Plant response rating, Oilseed Rape (oilseed rape; [19]): 90
- Plant response rating (scale of 0 to 100 where 0 is no effect and 100 is complete control), Soybean (soybean [8]; [16]): 35
- Soybean plant response rating (soybean [8]; [17]): 55
- Plant response rating, Soybean (soybean [8]; [18]): 85
- Plant response rating, Soybean (soybean [8]; [19]): 70
- Corn plant response rating (corn; 62 g ai/ha, scale 0 to 100): 15
- Plant response rating, Corn (corn; 250 g ai/ha, scale 0 to 100 (0 no effect, 100 complete control)): 25
- Plant response rating, Corn (corn; 125 g ai/ha, scale 0 to 100, 0 no effect, 100 complete control): 25
- Barnyardgrass plant response rating (barnyardgrass [9]; [20]): 100
- Barnyardgrass plant response rating (barnyardgrass [9]; [21]): 100
- Crabgrass, Large plant response rating (crabgrass, large [10]; [11]): 100
- Crabgrass, Large plant response rating (crabgrass, large [10]; [12]): 70
